In brackets after ≈: the same amount, converted by molar mass.
Columns and labels:
[1] = biological target: T1, His-tagged cytoplasmic domain of EGFR (Homo sapiens, UniProt P00533); assay: Inhibition of Epidermal Growth Factor Receptor Kinase (EGF-R) using recombinant enzyme, RR-SRC peptide phosphorylation; assay type: biochemical; conditions: recombinant enzyme; average of the number of tests; read-out: IC50
T1 construct: containing the EGFR cDNA encoding amino acids 645 - 1186 preceded by Met-Ala-(His)6; Met-Ala-(His)6 (N); made in house; host or cells: Sf9 insect cells, recombinant baculovirus vHcEGFR52
Experimental: The enzyme used in this assay is the His-tagged cytoplasmic domain of EGFR. […] Sf9 cells in 100 mm plates were infected at an moi of 10 pfu/cell and cells were harvested 48 h post infection. A cytoplasmic extract was prepared using 1% Triton X-100 and applied to Ni-NTA column. After washing the column with 20 mM imidazole, HcEGFR was eluted with 250 mM imidazole (in 50 mM Na2HPO4, pH 8.0, 300 mM NaCl). Fractions collected were dialyzed against 10 mM HEPES, pH 7.0, 50 mM NaCl, 10% glycerol, 1ug/mL antipain and leupeptin and 0. 1 mM Pefabloc SC. The protein was frozen in dry ice/methanol and stored -70°C.
For the enzyme reaction, 10 uL of each inhibitor (at various concentrations) were added to each well of a 96-well plate. To this was added 3 uL of enzyme (1: 10 dilution in 10mM HEPES, pH 7.4 for final conc. of 1:120). This was allowed to sit for 10 min on ice and was followed by the addition of 5 ul peptide (80 uM final conc.), 10ul of 4X Buffer (Table A), 0.25 uL ^33P-ATP and 12 uL H2O. The reaction was allowed to run for 90 min at room temperature and was followed by spotting the entire volume on to precut P81 filter papers. The filter discs were washed 2X with 0.5% phosphoric acid and radioactivity was measured using a liquid scintillation counter.

A431 = assay: Inhibition of Cancer Cell Growth (Sulforhodamine B); assay type: cell-based, Human; conditions: for IC50: Homo sapiens, A-431, 48 hours exposure, read-out: Inhibition of Cancer Cell Growth as Measured by Cell Number (IC50) A431; for Inhibition of Cancer Cell Growth as Measured by Cell Number (IC50) A431: 48 hours exposure
Experimental: (§1) After 48 hours exposure to test compounds, cells were fixed with trichloroacetic acid, and stained with Sulforhodamine B. After washing with trichloroacetic acid, bound dye was solubilized in 10 mM Tris base and optical density was determined using plate reader. Under conditions of the assay the optical density is proportional to the number of cells in the well. […] The test procedure is described in details by Philip Skehan et. al. J.Natl. Canc. […]

SKBR3 = assay: as above; assay type: cell-based, Human; conditions: for IC50: Homo sapiens, SK-BR-3, 48 hours exposure, read-out: Inhibition of Cancer Cell Growth as Measured by Cell Number (IC50) SKBR3; for Inhibition of Cancer Cell Growth as Measured by Cell Number (IC50) SKBR3: 48 hours exposure
Experimental: as §1

A2780DDP = assay: as above; assay type: cell-based, Human; conditions: 48 hours exposure; for IC50: Homo sapiens, read-out: Inhibition of Cancer Cell Growth as Measured by Cell Number (IC50) A2780DDP
Experimental: as §1

A2780S = assay: as above; assay type: cell-based, Human; conditions: 48 hours exposure; for IC50: Homo sapiens, read-out: Inhibition of Cancer Cell Growth as Measured by Cell Number (IC50) A2780S
Experimental: as §1

LOX = assay: as above; assay type: cell-based, Human; conditions: 48 hours exposure; for IC50: Homo sapiens, read-out: Inhibition of Cancer Cell Growth as Measured by Cell Number (IC50) LOX
Experimental: as §1

SW620 = assay: as above; assay type: cell-based, Human; conditions: for IC50: Homo sapiens, SW-620, 48 hours exposure, read-out: Inhibition of Cancer Cell Growth as Measured by Cell Number (IC50) SW620; for Inhibition of Cancer Cell Growth as Measured by Cell Number (IC50) SW620: 48 hours exposure
Experimental: as §1

MB435 = assay: as above; assay type: cell-based, Human; conditions: 48 hours exposure
Experimental: as §1

MCF7 = assay: as above; assay type: cell-based, Human; conditions: 48 hours exposure; for IC50: Homo sapiens, read-out: Inhibition of Cancer Cell Growth as Measured by Cell Number (IC50) MCF7
Experimental: as §1

T1 sequence (P00533 669-1210): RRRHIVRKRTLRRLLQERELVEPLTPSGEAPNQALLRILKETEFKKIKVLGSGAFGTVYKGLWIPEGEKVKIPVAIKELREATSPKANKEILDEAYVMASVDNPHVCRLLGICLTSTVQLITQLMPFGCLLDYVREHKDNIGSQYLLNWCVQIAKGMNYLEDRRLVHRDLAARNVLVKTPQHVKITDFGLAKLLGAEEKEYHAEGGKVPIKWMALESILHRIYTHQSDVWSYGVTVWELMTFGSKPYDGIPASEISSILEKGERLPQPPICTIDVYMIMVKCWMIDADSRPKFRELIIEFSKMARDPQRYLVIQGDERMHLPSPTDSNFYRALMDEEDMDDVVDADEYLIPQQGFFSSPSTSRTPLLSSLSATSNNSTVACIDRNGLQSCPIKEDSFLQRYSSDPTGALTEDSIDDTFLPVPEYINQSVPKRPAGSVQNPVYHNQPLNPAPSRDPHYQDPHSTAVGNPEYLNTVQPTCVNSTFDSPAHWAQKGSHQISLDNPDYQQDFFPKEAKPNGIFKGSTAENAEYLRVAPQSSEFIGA

CN1CCN(CC#CC(=O)Nc2ccc3ncnc(Nc4cccc(Br)c4)c3c2)CC1 [Example 34, 4-(4-Methyl-piperazin-1-yl]-but-2-ynoic acid [4-(3-bromophenylamino)-quinazolin-6-yl]-amide]
IC50 [1]: 35 nM

COCCN(CC#CC(=O)Nc1ccc2ncnc(Nc3cccc(Br)c3)c2c1)CCOC [Example 31, 4-[Bis-(2-methoxy-methyl]-amino]-but-2-ynoic acid [4-(3-bromophenylamino)-quinazolin-6-yl]-amide]
IC50 [1]: 2 nM | IC50 (A431): 0.01 µg/mL (≈ 0.0195 µM) | IC50 (SKBR3): < 0.01 µg/mL | IC50 (A2780DDP): 0.6 µg/mL (≈ 1.17 µM) | IC50 (A2780S): 0.2 µg/mL (≈ 0.39 µM) | IC50 (LOX): 0.5 µg/mL (≈ 0.976 µM) | IC50 (SW620): 0.4 µg/mL (≈ 0.781 µM) | IC50 (MB435; Homo sapiens, read-out: Inhibition of Cancer Cell Growth as Measured by Cell Number (IC50) MB435): 0.7 µg/mL (≈ 1.37 µM)

CSSC(C)C(=O)Nc1ccc2ncnc(Nc3cccc(Br)c3)c2c1 (stereo not shown) [Example 73, N-[4-(3-Bromo-phenylamino)-quinazolin-6-yl]-2-methyldisulfanyl-propionamide]
IC50 (A431): 1.07 µg/mL (≈ 2.38 µM) | IC50 (A2780DDP): 3 µg/mL (≈ 6.68 µM) | IC50 (A2780S): 1.77 µg/mL (≈ 3.94 µM) | IC50 (LOX): 3.1 µg/mL (≈ 6.9 µM) | IC50 (MCF7): 5.04 µg/mL (≈ 11.2 µM) | IC50 (SW620): 3.65 µg/mL (≈ 8.12 µM)

N-[4-(3-Bromo-phenylamino)-quinazolin-6-yl]-2-morpholin-4-ylmethyl-acrylamide [Example 63]
Inhibition of Cancer Cell Growth as Measured by Cell Number (IC50) A431 (A431): 0.6 µg/mL | Inhibition of Cancer Cell Growth as Measured by Cell Number (IC50) SKBR3 (SKBR3): <0.01 µg/mL | Inhibition of Cancer Cell Growth as Measured by Cell Number (IC50) A2780DDP (A2780DDP): 4.0 µg/mL | Inhibition of Cancer Cell Growth as Measured by Cell Number (IC50) A2780S (A2780S): 0.8 µg/mL | Inhibition of Cancer Cell Growth as Measured by Cell Number (IC50) LOX (LOX): 3.9 µg/mL | Inhibition of Cancer Cell Growth as Measured by Cell Number (IC50) MCF7 (MCF7): 17 µg/mL | Inhibition of Cancer Cell Growth as Measured by Cell Number (IC50) SW620 (SW620): 5.5 µg/mL | Inhibition of Cancer Cell Growth as Measured by Cell Number (IC50) MB435 (MB435): 4.5 µg/mL

4-Diethylamino-but-2-enoic acid [4-(3-bromo-phenylamino)-quinazolin-6-yl]-amide [Example 67]
Inhibition of Cancer Cell Growth as Measured by Cell Number (IC50) A431 (A431): 0.01 µg/mL | Inhibition of Cancer Cell Growth as Measured by Cell Number (IC50) SKBR3 (SKBR3): <0.01 µg/mL | Inhibition of Cancer Cell Growth as Measured by Cell Number (IC50) A2780DDP (A2780DDP): 43 µg/mL | Inhibition of Cancer Cell Growth as Measured by Cell Number (IC50) A2780S (A2780S): 22 µg/mL | Inhibition of Cancer Cell Growth as Measured by Cell Number (IC50) LOX (LOX): 46 µg/mL | Inhibition of Cancer Cell Growth as Measured by Cell Number (IC50) MCF7 (MCF7): 59 µg/mL | Inhibition of Cancer Cell Growth as Measured by Cell Number (IC50) SW620 (SW620): 52 µg/mL | Inhibition of Cancer Cell Growth as Measured by Cell Number (IC50) MB435 (MB435): 45 µg/mL

O=C(Nc1ccc2ncnc(Nc3cccc(Br)c3)c2c1)C1CO1 (stereo not shown) [Example 81, Oxirane-2-carboxylic acid [4-(3-bromo-phenylamino)-quinazolin-6-yl]-amide]
IC50 [1]: 0.7 nM | IC50 (A431): 0.34 µg/mL (≈ 0.883 µM) | IC50 (SKBR3): 0.306 µg/mL (≈ 0.794 µM) | IC50 (A2780DDP): 0.311 µg/mL (≈ 0.807 µM) | IC50 (A2780S): 0.257 µg/mL (≈ 0.667 µM) | IC50 (LOX): 0.386 µg/mL (≈ 1 µM) | IC50 (MCF7): 1.03 µg/mL (≈ 2.67 µM) | IC50 (SW620): 0.584 µg/mL (≈ 1.52 µM)

C=CS(=O)(=O)Nc1ccc2ncnc(Nc3cccc(Br)c3)c2c1 [Example 82, Ethenesulfonic acid[4-(3-bromo-phenylamino)-quinazolin-6-yl]-amide]
IC50 (A431): 0.025 µg/mL (≈ 0.0617 µM) | IC50 (SKBR3): 0.269 µg/mL (≈ 0.664 µM) | IC50 (A2780DDP): 0.112 µg/mL (≈ 0.276 µM) | IC50 (A2780S): 0.0626 µg/mL (≈ 0.154 µM) | IC50 (LOX): 0.382 µg/mL (≈ 0.943 µM) | IC50 (MCF7): 0.81 µg/mL (≈ 2 µM) | IC50 (SW620): 0.53 µg/mL (≈ 1.31 µM)

O=C(/C=C/Cl)Nc1ccc2ncnc(Nc3cccc(Br)c3)c2c1 [Example 47, N-[4-[(3-Bromophenyl)amino]-6-quinazolinyl]-3(E)-chloro-2-propenamide]
IC50 [1]: 0.3 nM | IC50 (A431): 0.023 µg/mL (≈ 0.057 µM) | IC50 (SKBR3): 0.496 µg/mL (≈ 1.23 µM) | IC50 (A2780DDP): 0.197 µg/mL (≈ 0.488 µM) | IC50 (A2780S): 0.01 µg/mL (≈ 0.0248 µM) | IC50 (LOX): 0.0772 µg/mL (≈ 0.191 µM) | IC50 (MCF7): 1.17 µg/mL (≈ 2.9 µM) | IC50 (SW620): 0.39 µg/mL (≈ 0.966 µM)

COCCN(C)CC#CC(=O)Nc1ccc2ncnc(Nc3cccc(Br)c3)c2c1 [Example 37]
IC50 [1]: 4.5 nM

Source: EP1000039B1 (Wyeth Holdings Corporation, priority 1997, dated 1999)
